Experimental data reported in patent publication US8129396B2, “2-[1H-benzimidazol-2(3H)-ylidene]-2-(pyrimidin-2-yl)acetamides and 2-[benzothiazol-2(3H)-ylidene]-2-(pyrimidin-2-yl)acetamides as kinase inhibitors” (Telik, Inc., priority 2008, dated 2012).
Where two headings read alike, the source gives them in different places.

Key:
Aurora A kinase = biological target: T1, Aurora A kinase (Homo sapiens, UniProt O14965); experiment: Aurora A kinase assay (IMAP fluorescence polarization); type: biochemical; conditions: 10 μM ATP; rounded to 1 significant figure; read-out: Aur-A IC50
T1 construct: purchased Upstate Biotech
T1 sequence (O14965 1-403): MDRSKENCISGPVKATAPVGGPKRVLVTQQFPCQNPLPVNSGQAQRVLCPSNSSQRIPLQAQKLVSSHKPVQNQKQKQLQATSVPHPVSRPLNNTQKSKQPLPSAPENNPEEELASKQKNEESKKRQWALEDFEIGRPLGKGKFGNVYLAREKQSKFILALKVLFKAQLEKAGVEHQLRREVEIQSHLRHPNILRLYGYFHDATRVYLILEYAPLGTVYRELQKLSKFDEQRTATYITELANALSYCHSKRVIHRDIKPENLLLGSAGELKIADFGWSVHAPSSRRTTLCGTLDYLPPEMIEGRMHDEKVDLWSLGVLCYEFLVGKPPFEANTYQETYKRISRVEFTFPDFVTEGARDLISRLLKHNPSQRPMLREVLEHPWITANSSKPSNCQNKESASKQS
Procedure, shortened: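 Compounds (eight 3-fold dilutions, 2.5% DMSO final) were preincubated 5 min at room temperature with Aurora A kinase in buffer with 1 mM DTT. Reaction with 100 nM fluorescein-PKAtide and 10 μM ATP ran 45 min at room temperature, then was stopped with IMAP binding reagent; fluorescence polarization was read after 30 min.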

Aurora B kinase = biological target: T2, Aurora B kinase (Homo sapiens, UniProt Q96GD4); experiment: Aurora B kinase assay (IMAP fluorescence polarization); type: biochemical; conditions: 10 μM ATP; rounded to 1 significant figure; read-out: Aur-B IC50
T2 construct: purchased BPS Bioscience
T2 sequence (Q96GD4 whole entry): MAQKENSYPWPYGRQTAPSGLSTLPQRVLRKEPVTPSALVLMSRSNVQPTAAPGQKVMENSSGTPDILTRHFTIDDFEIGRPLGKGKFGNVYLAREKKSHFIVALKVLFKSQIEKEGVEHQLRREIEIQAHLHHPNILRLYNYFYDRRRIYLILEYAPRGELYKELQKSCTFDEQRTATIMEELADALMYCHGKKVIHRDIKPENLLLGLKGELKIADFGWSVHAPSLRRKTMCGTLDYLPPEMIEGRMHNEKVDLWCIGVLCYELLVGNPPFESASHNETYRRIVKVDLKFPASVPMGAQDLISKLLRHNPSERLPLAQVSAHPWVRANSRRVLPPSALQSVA
Procedure, shortened: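 Reaction started with 100 nM fluorescein-labelled PKAtide and 10 μM ATP, run 45 min at room temperature, then stopped with IMAP binding reagent (1:400). After 30 min shaking at room temperature, fluorescence polarization read; run in duplicate with solvent control.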

VEGFR2 kinase = biological target: T3, VEGFR2 kinase (Homo sapiens, UniProt P35968); experiment: VEGFR2 kinase assay; type: biochemical; conditions: 6 μM ATP, 1 mM MnCl2; rounded to 1 significant figure
T3 construct: purchased Cell Signaling Technology
T3 sequence (P35968 20-1356): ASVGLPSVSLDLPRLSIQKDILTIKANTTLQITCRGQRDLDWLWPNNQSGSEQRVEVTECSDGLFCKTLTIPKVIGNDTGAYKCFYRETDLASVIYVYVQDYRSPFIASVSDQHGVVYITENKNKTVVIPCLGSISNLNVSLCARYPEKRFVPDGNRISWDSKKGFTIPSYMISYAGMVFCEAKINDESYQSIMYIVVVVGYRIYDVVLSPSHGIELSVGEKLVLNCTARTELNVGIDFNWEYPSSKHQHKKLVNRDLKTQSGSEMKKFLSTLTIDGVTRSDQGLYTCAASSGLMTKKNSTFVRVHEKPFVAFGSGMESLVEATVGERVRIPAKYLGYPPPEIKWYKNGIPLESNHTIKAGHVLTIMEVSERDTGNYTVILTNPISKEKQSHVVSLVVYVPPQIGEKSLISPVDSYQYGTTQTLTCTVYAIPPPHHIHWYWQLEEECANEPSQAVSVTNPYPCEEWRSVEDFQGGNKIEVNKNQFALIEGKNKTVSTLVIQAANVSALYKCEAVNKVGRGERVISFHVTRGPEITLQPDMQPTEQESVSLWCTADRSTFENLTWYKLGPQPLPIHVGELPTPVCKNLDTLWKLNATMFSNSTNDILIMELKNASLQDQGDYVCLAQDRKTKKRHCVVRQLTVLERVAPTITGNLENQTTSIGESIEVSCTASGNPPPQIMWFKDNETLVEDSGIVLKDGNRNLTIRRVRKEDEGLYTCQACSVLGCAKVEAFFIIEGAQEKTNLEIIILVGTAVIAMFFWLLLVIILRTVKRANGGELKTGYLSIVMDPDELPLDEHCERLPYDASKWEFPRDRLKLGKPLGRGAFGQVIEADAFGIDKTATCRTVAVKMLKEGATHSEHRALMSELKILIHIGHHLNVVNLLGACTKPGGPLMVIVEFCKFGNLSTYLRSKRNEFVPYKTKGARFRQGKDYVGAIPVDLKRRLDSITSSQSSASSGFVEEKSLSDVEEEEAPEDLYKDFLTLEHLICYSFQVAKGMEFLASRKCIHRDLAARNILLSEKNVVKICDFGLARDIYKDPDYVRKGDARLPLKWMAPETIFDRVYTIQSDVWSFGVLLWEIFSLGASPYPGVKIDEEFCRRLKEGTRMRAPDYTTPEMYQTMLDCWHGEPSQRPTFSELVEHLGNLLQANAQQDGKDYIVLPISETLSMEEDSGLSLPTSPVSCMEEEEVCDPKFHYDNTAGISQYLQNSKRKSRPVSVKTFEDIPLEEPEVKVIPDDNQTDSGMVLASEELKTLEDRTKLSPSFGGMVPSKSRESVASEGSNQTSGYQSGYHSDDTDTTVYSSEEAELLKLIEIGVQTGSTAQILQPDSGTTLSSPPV
Procedure, shortened: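 VEGFR2 phosphorylates CSKtide with 6 μM ATP and 1 mM MnCl2 for 1 hr, otherwise following the Aurora A kinase protocol. Detection by IMAP fluorescence polarization, binding reagent diluted 1:1200 in 1:1 binding buffer A/B. Run in duplicate with solvent control.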

p-H3 in HCT116 cells = experiment: Histone phosphorylation (p-H3) assay; type: cell-based; conditions: Homo sapiens, read-out: p-H3 IC50
Procedure, shortened: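 HCT116 cells (2.5×10^4/well, attached overnight) treated 4 h with 8-point 3-fold compound dilutions at 0.5% DMSO. Lysates dot-blotted onto nitrocellulose and probed for p-H3 with β-actin on the same membrane, fluorescent secondary antibodies, Odyssey scan; duplicate wells.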

[1] = system: HCT116 (human colon carcinoma) cells; experiment: HCT116 cytotoxicity assay (CellTiter-Glo); type: cell-based; conditions: HCT-116, 72 h, read-out: HCT116 IC50
[2] = system: HL60 (human promyelocytic leukemia) cells; experiment: HL60 cytotoxicity assay (CellTiter-Glo); type: cell-based; conditions: HL-60, 72 h, read-out: HL60 IC50
Excerpt: The cell lines HL60 (human promyelocytic leukemia) and HCT116 (human colon carcinoma) were obtained from the American Type Culture Collection, Manassas, Va., U.S.A., and HUVEC-2 (human umbilical vein endothelial cells) from BD Biosciences, Bedford, Mass., U.S.A. Aurora A kinase was obtained from Upstate Biotech, Billerica, Mass., U.S.A.; Aurora B kinase from BPS Bioscience, San Diego, Calif., U.S.A.; and VEGFR2 kinase from Cell Signaling Technology, Danvers, Mass., U.S.A. The IMAP FP Screening Express kit was obtained from Molecular Devices, Sunnyvale, Calif., U.S.A.; the CellTiter-Glo assay kit from Promega Corporation, Madison, Wis., U.S.A.; and the Cellular DNA Cytometric Analysis Reagent Kit and BrdU labeling and detection kit from Roche Diagnostics Corporation, Indianapolis, Ind., U.S.A. All products were used in accordance with manufacturer's directions. Kinase inhibition assays and the histone phosphorylation (p-H3) assay were conducted in duplicate, and the cytotoxicity and HUVEC proliferation assays were conducted in triplicate, in each case with solvent control.
Log-phase cells were trypsinized, collected by centrifugation, and resuspended in a small volume of fresh medium, and the density of viable cells was determined following Trypan Blue staining. Cells were diluted in fresh media (1×10^4 cells/mL for HL60 and 4×10^4 cells/mL for HCT116 cells), the test compounds (concentrations between 0.1 μM and 200 μM, dissolved in DMSO, 50 μL) added immediately after dilution to achieve a final DMSO concentration of 0.5%, then the suspensions added at 150 μL/well to 96-well plates, and incubated overnight to allow attachment in the case of adherent cells. The cells were cultured for three days (about three doubling times). The cells were then collected by centrifugation, and 100 μL of the culture supernatant was replaced by the CellTiter-Glo reagent. After incubation for 15 minutes at room temperature, the plate was read with a luminometer.

[3] = system: HUVEC-2 (human umbilical vein endothelial cells); experiment: HUVEC VEGF-dependent proliferation assay (BrdU); type: cell-based; conditions: read-out: HUVEC IC50
Procedure, shortened: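 HUVEC-2 cells on gelatin got serially diluted compound (0.5% DMSO final), and VEGF (25 ng/mL) was added 2 hr later. BrdU (10 μM) went in after one day, with labelling for another day. VEGF-dependent proliferation was read by BrdU detection, in triplicate.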

[4] = system: HL60 (human promyelocytic leukemia) xenograft; experiment: HL60 xenograft assay, oral administration; type: in vivo, athymic nu/nu mice; conditions: 150 mg/Kg by gavage once/day on days 1-5 and 8-10; measured 1-2 days after last treatment
Experimental: Male athymic nu/nu mice, 6-8 weeks old (about 20 g), were implanted subcutaneously in the right fore flank with about 1×10^7 cells of the HL60 (human promyelocytic leukemia) line that had been grown in antibiotic-free medium for at least two passages. About 6 days after tumor implantation, when the tumor weight was about 50-250 mg, the mice were assigned to treatment groups. […] […] Tumor growth inhibition was measured 1-2 days after the last day of treatment.

[5] = HCT-116, HCT116 cells, 4 hr incubation
[6] = cytotoxicity, three days culture
[7] = VEGF (25 ng/mL)-dependent proliferation

Row | IC50 (Aurora A kinase) [nM] | IC50 (Aurora B kinase) [nM] | IC50 (VEGFR2 kinase) [nM] | IC50 (p-H3 in HCT116 cells; [5]) [nM] | Compound | IC50 [1, 6] [nM] | IC50 [2, 6] [nM] | IC50 [3, 7] [nM] | inhibition of tumor growth compared to vehicle [4] [%] | IC50 (p-H3 in HCT116 cells; HCT-116, 4 h) [nM] | IC50 [1] [nM] | IC50 [2] [nM] | IC50 [3] [nM]
1 | 6 | 4 | 4 | 100 | CCN(CCCN1CCOCC1)C(=O)c1ccc2c(c1)N/C(=C(/C(N)=O)c1nccc(C(F)(F)F)n1)N2 [Compound 41A] | 700 | 100 | 200 | 81 | – | – | – | –
2 | 20 | 20 | 10 | 400 | NC(=O)/C(=C1\Nc2ccc(NC(=O)[C@H]3CCCN3)cc2N1)c1nccc(C(F)(F)F)n1 [Compound 79A] | 100 | 300 | 40 | – | – | – | – | –
3 | 6 | 7 | 9 | 90 | CC(C)(N)C(=O)Nc1ccc2c(c1)N/C(=C(/C(N)=O)c1nccc(C(F)(F)F)n1)N2 [Compound 81A] | 300 | 200 | 80 | – | – | – | – | –
4 | 4 | 8 | 30 | 200 | NC(=O)/C(=C1\Nc2ccc(NC(=O)Cn3ccnc3)cc2N1)c1nccc(C(F)(F)F)n1 [Compound 86A] | 400 | 800 | 30 | – | – | – | – | –
5 | 8 | 9 | 10 | 200 | NC(=O)/C(=C1\Nc2ccc(NC(=O)CCn3ccnc3)cc2N1)c1nccc(C(F)(F)F)n1 [Compound 87A] | 200 | 100 | 90 | – | – | – | – | –
6 | 5 | 5 | 6 | 100 | NC(=O)/C(=C1\Nc2ccc(Cn3ccnc3)cc2S1)c1nccc(C(F)(F)F)n1 [Compound 89A] | 500 | 700 | 80 | – | – | – | – | –
7 | 5 | 9 | 10 | 300 | NC(=O)/C(=C1\Nc2ccc(CCN3CCS(=O)(=O)CC3)cc2S1)c1nccc(C(F)(F)F)n1 [Compound 100A] | 400 | 90 | 20 | – | – | – | – | –
8 | 20 | 10 | 20 | 2000 | NC(=O)/C(=C1\Nc2ccc(CCN3CCSCC3)cc2S1)c1nccc(C(F)(F)F)n1 [Compound 103A] | 2000 | 100 | 100 | – | – | – | – | –
9 | 40 | 10 | 100 | 4000 | NC(=O)/C(=C1\Nc2ccc(Oc3cccnc3)cc2S1)c1nccc(C(F)(F)F)n1 [Compound 118A] | 2000 | 300 | 200 | – | – | – | – | –
10 | 20 | 6 | 20 | 200 | NC(=O)/C(=C1\Nc2ccc(S(=O)(=O)NCCCN3CCOCC3)cc2S1)c1nccc(C(F)(F)F)n1 [Compound 127A] | 600 | 500 | 40 | – | – | – | – | –

Second part, the compound before the results:

Row | Compound | IC50 (Aurora A kinase) [nM] | IC50 (Aurora B kinase) [nM] | IC50 (VEGFR2 kinase) [nM] | IC50 (p-H3 in HCT116 cells; [5]) [nM] | IC50 [1, 6] [nM] | IC50 [2, 6] [nM] | IC50 [3, 7] [nM] | inhibition of tumor growth compared to vehicle [4] [%] | IC50 (p-H3 in HCT116 cells; HCT-116, 4 h) [nM] | IC50 [1] [nM] | IC50 [2] [nM] | IC50 [3] [nM]
11 | CN(C)CC(=O)Nc1ccc2c(c1)S/C(=C(/C(N)=O)c1nccc(C(F)(F)F)n1)N2 [Compound 74A] | 20 | 10 | 20 | 200 | 300 | 40 | 80 | – | – | – | – | –
12 | CN1CCC[C@H]1C(=O)Nc1ccc2c(c1)N/C(=C(/C(N)=O)c1nccc(C(F)(F)F)n1)N2 [Compound 77A] | 8 | 7 | 9 | 100 | 200 | 300 | 90 | 75 | – | – | – | –
13 | CN1CCC[C@H]1C(=O)Nc1ccc2c(c1)S/C(=C(/C(N)=O)c1nccc(C(F)(F)F)n1)N2 [Compound 78A] | 60 | 40 | 50 | 600 | 2000 | 1000 | 400 | – | – | – | – | –
14 | NC(=O)/C(=C1\Nc2ccc(NC(=O)CCN3CCOCC3)cc2N1)c1nccc(C(F)(F)F)n1 [Compound 84A] | 7 | 9 | 20 | 100 | 200 | 100 | 60 | – | – | – | – | –
15 | NC(=O)/C(=C1\Nc2ccc(NC(=O)CCCN3CCOCC3)cc2N1)c1nccc(C(F)(F)F)n1 [Compound 85A] | 5 | 4 | 20 | 50 | 300 | 60 | 20 | 45 | – | – | – | –
16 | NC(=O)/C(=C1\Nc2cc(NC(=O)Cn3ccnc3)ccc2S1)c1nccc(C(F)(F)F)n1 [Compound 88A] | 4 | 8 | 20 | 60 | 300 | 100 | 300 | – | – | – | – | –
17 | NC(=O)/C(=C1\Nc2ccc(Cn3ccnc3)cc2N1)c1nccc(C(F)(F)F)n1 [Compound 90A] | 4 | 9 | 4 | 70 | 200 | 100 | 90 | – | – | – | – | –
18 | NC(=O)/C(=C1\Nc2ccc(CN3CCNCC3)cc2S1)c1nccc(C(F)(F)F)n1 [Compound 94A] | 7 | 7 | 10 | 80 | 200 | 100 | 50 | – | – | – | – | –
19 | NC(=O)/C(=C1\Nc2ccc(CC(=O)NCCCN3CCOCC3)cc2S1)c1nccc(C(F)(F)F)n1 [Compound 110A] | 50 | 20 | 20 | – | – | – | – | – | 200 | 200 | 800 | 80
20 | CN1CCC(C(=O)Nc2ccc3c(c2)N/C(=C(/C(N)=O)c2nccc(C(F)(F)F)n2)N3)CC1 [Compound 140A] | 6 | 9 | 20 | 400 | 400 | 300 | 20 | – | – | – | – | –
